Laboratory results reported in ChEMBL document CHEMBL1127586, “Central cholinergic agents. 6. Synthesis and evaluation of 3-[1-(phenylmethyl)-4-piperidinyl]-1-(2,3,4,5-tetrahydro-1H-1-benzazepi n-8-yl)-1-propanones and their analogs as central selective acetylcholinesterase inhibitors” (J Med Chem, 1994).
Several values for one entry are separate records, joined by “and”; a condition that tells them apart may be missing. Equal values may be shown once.

Legend:
[1] = molecular target: T1, Acetylcholinesterase (Rattus norvegicus, UniProt P37136)
T1 sequence (P37136 whole entry): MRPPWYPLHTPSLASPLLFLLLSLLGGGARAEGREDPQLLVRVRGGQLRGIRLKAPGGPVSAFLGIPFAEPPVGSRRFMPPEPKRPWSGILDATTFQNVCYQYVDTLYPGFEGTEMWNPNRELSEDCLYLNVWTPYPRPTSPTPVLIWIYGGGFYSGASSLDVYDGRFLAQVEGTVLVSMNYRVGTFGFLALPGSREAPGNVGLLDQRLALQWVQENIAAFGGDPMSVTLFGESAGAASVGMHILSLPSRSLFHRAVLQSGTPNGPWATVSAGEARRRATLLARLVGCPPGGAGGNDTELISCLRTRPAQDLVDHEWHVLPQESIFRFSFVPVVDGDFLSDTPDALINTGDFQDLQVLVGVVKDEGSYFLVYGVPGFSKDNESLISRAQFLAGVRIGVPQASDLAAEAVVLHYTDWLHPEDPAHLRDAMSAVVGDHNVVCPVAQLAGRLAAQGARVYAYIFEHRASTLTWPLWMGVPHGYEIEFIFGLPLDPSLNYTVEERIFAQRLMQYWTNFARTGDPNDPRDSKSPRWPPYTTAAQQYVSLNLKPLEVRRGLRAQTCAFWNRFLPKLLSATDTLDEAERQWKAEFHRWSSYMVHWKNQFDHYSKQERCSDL
Description: Inhibition of acetylcholinesterase (AChE)

[2] = test system: Rattus norvegicus; assay: Effect of compound on peripheral cholinergic effects in male wistar rats when administered orally at a dose of 30 mg/Kg; fasciculation, lacrimation; assay type: functional, organism-based
[3] = species on record: Rattus norvegicus; assay: animal or person; settings: po
Description: Tested for effective inhibition by peroral administration

[4] = test system: Rattus norvegicus; assay: Number of circlings observed for 30 min at 3 mg/kg orally administered dose in rats; assay type: functional; settings: route oral
[5] = Acute toxicity in rat by peroral administration; assay type: organism-based; settings: in vivo, po
[6] = species on record: Rattus norvegicus
Description: Ameliorating effects on diazepam-induced memory impairment of passive avoidance response (no of rats) by peroral administration

[7] = test system: Rattus norvegicus; assay: Peripheral cholinergic effects in male wistar rats when administered orally at a dose of 10 mg/Kg.; assay type: functional, organism-based
[8] = species on record: Rattus norvegicus; assay: Inhibition of circling behavior, percentage of control was reported; (p<0.05); assay type: functional; parameters: scale not given: the % may be the effect or the level left
[9] = test system: Rattus norvegicus; assay: Peripheral cholinergic effects in male wistar rats when administered orally at a dose of 3 mg/Kg.; assay type: functional, organism-based
[10] = test system: Rattus norvegicus; assay: Number of circlings observed for 30 min at 1 mg/kg orally administered dose in rats; assay type: functional; settings: route oral
[11] = LD50/MED ratio; assay type: ADME; settings: read-out: Therapeutic index
[12] = species on record: Rattus norvegicus; assay: animal or person; settings: read-out: MED
Description: Ameliorating effects on diazepam-induced memory impairment of passive avoidance response (no of rats)

[13] = ED50/MED ratio; assay type: functional
[14] = test system: Rattus norvegicus; assay: Effect of compound on peripheral cholinergic effects in male wistar rats when administered orally at a dose of 3 mg/Kg; fasciculation; assay type: functional, organism-based
[15] = test system: Rattus norvegicus; assay: Effect of compound on peripheral cholinergic effects in male wistar rats when administered orally at a dose of 1 mg/Kg; No significant change; assay type: functional, organism-based
[16] = test system: Rattus norvegicus; assay: Effect of compound on peripheral cholinergic effects in male wistar rats when administered orally at a dose of 10 mg/Kg; fasciculation, salivation; assay type: functional, organism-based
[17] = species on record: Rattus norvegicus; settings: dose 10 mg/kg; route oral
Description: Number of circlings observed for 30 min at 10 mg/kg orally administered dose in rats

[18] = test system: Rattus norvegicus; assay: Effect of compound on peripheral cholinergic effects in male wistar rats when administered orally at a dose of 30 mg/Kg; fasciculation, salivation; assay type: functional, organism-based
[19] = test system: Rattus norvegicus; assay: Effect of compound on peripheral cholinergic effects in male wistar rats when administered orally at a dose of 3 mg/Kg; salivation; assay type: functional, organism-based
[20] = test system: Rattus norvegicus; assay: Effect of compound on peripheral cholinergic effects in male wistar rats when administered orally at a dose of 10 mg/Kg; fasciculation, lacrimation; assay type: functional, organism-based
[21] = test system: Rattus norvegicus; assay: Effect of compound on peripheral cholinergic effects in male wistar rats when administered orally at a dose of 30 mg/Kg; […]; assay type: functional, organism-based

Compound COc1cccc(CN2CCC(CCC(=O)c3ccc4c(c3)NCCCC4)CC2)c1 has an IC50 [1] of 847 nM.
In the case of O=C(CCC1CCN(Cc2ccccc2)CC1)c1ccc2c(c1)NCCCC2 [ZANAPEZIL], the Activity [2] is reported as “Fasciculation, Lacrimation”, the ED50 [3] is reported as 10.2 mg/kg and the IC50 [1] is reported as 97.7 nM. The No. of circlings [4] was 75.1, the LD50 [5] was 334 mg/kg and the Avoidance time [6] was 106.6 s and 192.2 s and 193.2 s. The Activity [7] was “Fasciculation”, the Control [8] was 69.9% and the Activity [9] was “No activity”. The No. of circlings [10] was 87.5, the selectivity ratio [11] was 334 and the minimal effective dose [12] was 1 mg/kg. It also gave a Central selectivity [13] of 10.2.
With O=C(CCC1CCN(Cc2cccc(F)c2)CC1)c1ccc2c(c1)NCCCC2 the Activity [2] was “Fasciculation, Lacrimation”, the No. of circlings [4] was 98.4 and the Activity [7] was “Fasciculation”. For the same compound, the Activity [9] was “No activity”.
For CN1CCCCc2ccc(C(=O)CCC3CCN(Cc4ccccc4)CC3)cc21, the No. of circlings [4] was 100.3, the Activity [7] was “Fasciculation” and the Activity [9] was “No activity”.
For COc1cccc(CN2CCC(CCC(=O)c3ccc4c(c3)CCN4)CC2)c1, the IC50 [1] was 2680 nM.
For O=C(CCC1CCN(Cc2cccc(Cl)c2)CC1)c1ccc2c(c1)CCCN2, the Activity [2] was “Fasciculation, Lacrimation”, the Activity [14] was “Fasciculation” and the IC50 [1] was 54 nM. For the same compound, the No. of circlings [4] was 77.4, the Activity [7] was “Fasciculation” and the Activity [15] was “No activity”. For the same compound, the No. of circlings [10] was 70.1.
In the case of CCCCCN1CCc2cc(C(=O)CCC3CCN(Cc4ccccc4)CC3)ccc21, the Activity [16] is reported as “Fasciculation, Salivation”, the No. of circlings [4] is reported as 79 and the Activity [9] is reported as “No activity”.
For CN1CCCc2ccc(C(=O)CCC3CCN(Cc4ccccc4)CC3)cc21, the Activity [2] was “Fasciculation”, the No. of circlings [4] was 105.6 and the Activity [7] was “Fasciculation”. The Activity [9] was “No activity”.
In the case of O=C(CCC1CCN(Cc2ccccc2)CC1)c1ccc2c(c1)CCN2Cc1ccccc1, the Activity [2] is reported as “Fasciculation, Lacrimation”, the No. of circlings [4] is reported as 66.8 and the Activity [7] is reported as “Fasciculation”. For the same compound, the Activity [9] was “No activity”.
With Cc1cccc(CN2CCC(CCC(=O)c3ccc4c(c3)CCN4)CC2)c1 the No. of circlings [4] was 104, the Activity [7] was “Fasciculation” and the Activity [9] was “No activity”.
In the case of CCCN1CCc2cc(C(=O)CCC3CCN(Cc4ccccc4)CC3)ccc21, the No. of circlings [17] is reported as 81.
For O=C(CCC1CCN(Cc2cccc([N+](=O)[O-])c2)CC1)c1ccc2c(c1)CCN2, the No. of circlings [17] was 91.1.
O=C(CCC1CCN(Cc2ccccc2)CC1)c1ccc2c(c1)NCC2 gave a No. of circlings [10] of 107.9.
With O=C(CCC1CCN(Cc2ccccc2)CC1)c1ccc2c(c1)N(Cc1ccccc1)CC2 the IC50 [1] was 853 nM.
O=C(CCC1CCN(Cc2cccc([N+](=O)[O-])c2)CC1)c1ccc2c(c1)NCCCC2 showed an IC50 [1] of 390 nM.
With CCN1CCc2cc(C(=O)CCC3CCN(Cc4ccccc4)CC3)ccc21 the No. of circlings [4] was 89.7, the Activity [7] was “Fasciculation” and the Activity [9] was “No activity”. For the same compound, the Activity [18] was “Fasciculation, Salivation”.
For O=C(CCC1CCN(Cc2ccccc2)CC1)c1ccc2c(c1)NCCCCC2, the Activity [2] was “Fasciculation, Lacrimation”, the Activity [19] was “Salivation” and the Activity [15] was “No activity”. For the same compound, the Activity [20] was “Fasciculation, Lacrimation” and the No. of circlings [10] was 60.7.
In the case of Cc1cccc(CN2CCC(CCC(=O)c3ccc4c(c3)NCCCC4)CC2)c1, the Activity [21] is reported as “Fasciculation”, the IC50 [1] is reported as 224 nM and the Activity [9] is reported as “No activity”. The No. of circlings [17] was 61.4.
With CCN1CCCCc2ccc(C(=O)CCC3CCN(Cc4ccccc4)CC3)cc21 the IC50 [1] was 376 nM.
